Measured values taken from PubChem BioAssay (NCI).
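Compound exposure: 48 hours, 5 concentrations, 96-well plates. GI50: concentration for 50% inhibition of growth. TGI marks complete inhibition of growth.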

Legend:
Test in all cases: NCI-60 cell line screen, 48 h
MCF7 breast = tested on: MCF7 breast
SF-539 CNS = tested on: SF-539 CNS
K-562 leukemia = tested on: K-562 leukemia
OVCAR-8 ovarian = tested on: OVCAR-8 ovarian
UO-31 renal = tested on: UO-31 renal
A549 NSCLC = tested on: A549 NSCLC
PC-3 prostate = tested on: PC-3 prostate
SN12C renal = tested on: SN12C renal
HOP-62 NSCLC = tested on: HOP-62 NSCLC
NCI/ADR-RES ovarian = tested on: NCI/ADR-RES ovarian

SMILES | GI50 (MCF7 breast) [µM] | TGI (MCF7 breast) [µM] | GI50 (SF-539 CNS) [µM] | TGI (SF-539 CNS) [µM] | GI50 (K-562 leukemia) [µM] | TGI (K-562 leukemia) [µM] | GI50 (OVCAR-8 ovarian) [µM] | TGI (OVCAR-8 ovarian) [µM] | GI50 (UO-31 renal) [µM] | TGI (UO-31 renal) [µM] | GI50 (A549 NSCLC) [µM] | TGI (A549 NSCLC) [µM] | GI50 (PC-3 prostate) [µM] | TGI (PC-3 prostate) [µM] | GI50 (SN12C renal) [µM] | TGI (SN12C renal) [µM] | GI50 (HOP-62 NSCLC) [µM] | TGI (HOP-62 NSCLC) [µM] | GI50 (NCI/ADR-RES ovarian) [µM] | TGI (NCI/ADR-RES ovarian) [µM]
CC(=O)c1cc(C(=O)c2ccc3c(c2)Sc2ccccc2N3)c2c(C)cc(C)cn12 | 0.239 | > 100 | 0.185 | 0.535 | 0.222 | > 100 | 0.405 | > 100 | 0.635 | > 100 | 0.337 | > 55.6 | 0.362 | > 100 | 0.724 | > 100 | 0.394 | > 63 | 0.264 | 8.16
Cl.Fc1c[c-]c(-c2ccccn2)c(F)c1.[Pt].c1ccc(P(c2ccccc2)C([PH+](c2ccccc2)c2ccccc2)[PH+](c2ccccc2)c2ccccc2)cc1 | 2.95 | > 100 | 3.18 | 11.3 | 2.44 | > 100 | 2.83 | 38.5 | 2.27 | 7.65 | 2.84 | 20.7 | 2.17 | > 100 | 2.91 | 15.4 | 2.63 | 9.78 | 34.9 | > 100
CCOC(=O)n1cc(C2=C(c3cn(C)c4ccccc34)COC2=O)c2ccccc21 | 0.032 | > 100 | 0.119 | 0.584 | 0.0365 | > 32.2 | 0.312 | > 100 | 0.0781 | > 100 | 0.166 | > 100 | 0.162 | > 100 | 0.306 | > 100 | 0.159 | 20.4 | 0.0531 | 
COC(=O)[C@]12CC[C@@H](C)[C@H](C)[C@@H]1C1=CC[C@@H]3[C@@]4(C)C(C=O)=C[C@@](C)(COC(C)=O)C4=CC[C@@]3(C)[C@]1(C)CC2 | 2.99 | 12.5 | 10.5 | 26 | 4.1 | 15.3 | 4.46 | 18.9 | 3.61 | 16 | 3.82 | 16.2 | 3.07 | 13.9 | 6.12 | 28.1 | 11.7 | 29.3 | 5.35 | 18.9
Nc1nc2c(s1)CCc1c-2c(Br)n(Cc2ccccc2)c1Br | 11.9 | 28.6 | 15.4 | 29.2 | 3.55 | 19.3 | 6.48 | 64.2 | 1.8 | 4.41 | 17.2 | > 100 | 12.8 | 45.5 | 13.5 | 31.2 | 18 | 33.6 | 23.7 | 87.7
Cn1cc(C2=C(c3cn(C)c4c([N+](=O)[O-])cccc34)C(=O)NC2=O)c2ccccc21 | > 25 | > 25 | > 25 | > 25 | > 25 | > 25 | > 25 | > 25 | > 25 | > 25 | > 25 | > 25 | > 25 | > 25 | > 25 | > 25 | > 25 | > 25 | > 25 | > 25
CC1COc2c(N3CCN(C)CC3)c(F)cc3c(=O)c(C(=O)O)cn1c23 (centres undefined) | > 100 | > 100 | > 100 | > 100 | 96.8 | > 100 | > 100 | > 100 | 47.5 | > 100 | > 100 | > 100 | > 100 | > 100 | > 100 | > 100 | > 100 | > 100 | > 100 | > 100
Cc1ccccc1-n1ncc(C(=O)c2ccccc2)c1N | > 25 | > 25 | > 25 | > 25 | > 25 | > 25 | > 25 | > 25 | > 25 | > 25 | > 25 | > 25 | > 25 | > 25 | > 25 | > 25 | > 25 | > 25 | > 25 | > 25
COc1ccc2c(c1)[nH]c(=O)c1c3cc(OC)ccc3cn21 | 0.0277 | 0.597 | 0.0179 | 0.0498 | < 0.01 | 0.0486 | 0.0343 | 1.57 | 0.028 | 1.9 | 0.0265 | 1.28 | < 0.0104 | 1.52 | 0.0362 | 2.3 | 0.179 | 2.05 | < 0.01 | 0.02
C[C@H](Nc1ncnc2nc[nH]c12)c1cc2ccc(F)cc2nc1-c1ccccn1 | 28.4 | > 100 | > 94.7 | > 100 | > 100 | > 100 | > 100 | > 100 | 9.3 | > 100 | > 100 | > 100 | 25 | > 100 | 57.8 | > 100 | > 57.8 | > 100 | > 100 | > 100
CNC(=O)OCc1c2ccncc2c(C)c2c1[nH]c1ccccc12 |  | 1.24 |  | 0.784 |  | > 100 |  | 2.16 |  | 0.966 |  | 2.58 |  | 20.7 |  | 1.94 |  | 5 |  | 2.3
CC(C)(C)C(=O)OCOP(=O)(OCOC(=O)C(C)(C)C)C1CC(O)N(O)C1=O (centres undefined) | 3.32 | > 100 | 3.18 | 22.1 | 3.66 | > 100 | 4.73 | > 100 | 2.92 | 37.6 | 30.7 | > 100 | 8.81 | > 100 | 2.87 | 9.56 | 5.28 | 26.8 | 4.39 | > 100
COc1ccc(C(SCC(N)C(=O)O)(c2ccccc2)c2ccccc2)cc1 (centres undefined) | 0.0385 | > 100 | 0.0721 | 15.1 | 0.0567 | > 45.8 | 0.482 | > 100 | 13.6 | > 100 | 0.594 | > 100 | 0.185 | > 100 | 0.199 | > 68.4 | 0.392 | > 84.5 | 2.12 | 33.7
c1cc2[nH]ncc2cc1-c1nc2ccc3[nH]ncc3c2c2c1CCCC2 | 0.736 | 11.2 | 1.53 | 5.4 | 0.468 | > 44 | 2.66 | 15.9 | 1.33 | 4.54 | 1.78 | > 31.4 | 1.44 | 21.5 | 2.53 | 13.4 | 1.39 | 9.11 | 2.08 | 16.4
